Laboratory results as given in patent publication US8299028B2, “Chimeric peptide antagonist for GPCR135 or GPCR142” (Janssen Pharmaceutica NV, priority 2007, dated 2012).

Experiments:
satiated Wistar rats = assay: Food intake in satiated Wistar rats after i.c.v. administration; format: in vivo, rat; settings: 10 μg i.c.v.
Method: FIG. 6 illustrates food consumption in satiated Wistar rats during the first hour of the test session (i.e., Day 2) following i.c.v. administration of vehicle (5 μL)+vehicle (5 μL), vehicle (5 μl)+R3/I5 (10 μg), R3(BΔ23-27)R/I5 (10 μg)+vehicle (5 μl), and R3(BΔ23-27)R/I5 (10 μg)+R3/I5 (10 μg) (mean±SEM; n=5-6 per group) (A).
Experimentally naïve, male Wistar rats (Charles River, Wilmington, Mass.) weighing 200-225 grams at the time of arrival were used. The animals were initially housed at two per cage and given a one-week acclimation period to the vivarium prior to i.c.v. cannula implantation. All animals had free access to food and water throughout the experiment and were not food deprived prior to behavioral testing. The animal colony was maintained at 22±2° C. during a 12-hr light/12-hr dark illumination cycle with lights on from 0600 to 1800 hours. […]
A predetermined amount of standard rat chow (Formulab Diet No. 5008, which contained 23.0% protein and 6.5% fat) was placed in the food hopper at the start of the 4 hr session(s). The amount of food remaining in the food hopper was determined by subtracting the weight of the food at 1 and 4 hrs from the initial food weight (i.e., weight of the food at the start of the session). Food crumbs detected on the floor of the apparatus were included in the determination of food weights. […]

[1] = molecular target: T1, endogenous GPCR135 from rat brain slices (Rattus norvegicus, UniProt Q5Y987); assay: Autoradiography, displacement of 125I-R3/I5 binding on rat brain slices; settings: at 10 nM
T1 construct: using endogenous GPCR135 from rat brain slices in autoradiographic studies; from tissue; host or cells: rat brain slices
T1 sequence (Q5Y987 1-469): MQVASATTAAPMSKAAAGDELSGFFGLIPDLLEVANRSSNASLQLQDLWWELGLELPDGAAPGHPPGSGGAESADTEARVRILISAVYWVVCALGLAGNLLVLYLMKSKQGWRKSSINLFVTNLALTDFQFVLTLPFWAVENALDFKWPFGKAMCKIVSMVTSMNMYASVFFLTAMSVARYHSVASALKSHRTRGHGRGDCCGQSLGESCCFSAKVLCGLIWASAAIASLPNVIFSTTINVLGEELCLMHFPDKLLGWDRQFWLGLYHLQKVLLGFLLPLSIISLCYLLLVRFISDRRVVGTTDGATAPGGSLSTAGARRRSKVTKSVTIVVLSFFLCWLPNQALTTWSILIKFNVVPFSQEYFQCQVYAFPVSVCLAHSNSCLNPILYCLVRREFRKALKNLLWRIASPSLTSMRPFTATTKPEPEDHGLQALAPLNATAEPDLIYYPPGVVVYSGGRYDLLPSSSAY
Method: FIG. 5 provides autoradiograms of ^125I-R3/I5 binding sites in the rat brain (A) with competition by relaxin-3 (10 nM, B) or R3(BΔ23-27)R/I5 (10 nM, C), and a dose-response curve for R3(BΔ23-27)R/I5 as the competitor in the binding assay on rat brain slices (D). A dose-response curve for human relaxin-3 is included for comparison (D). Nonspecific binding was determined using 1 μM unlabeled relaxin-3.
R3(BΔ23-27)R/I5 peptide was evaluated pharmacologically using endogenous GPCR135 from rat brain slices in autoradiographic studies as described by Sutton et al., 2004. Briefly, ^125I-R3/I5 was applied in a binding buffer to rat brain slices. Unlabeled human relaxin-3 or R3(BΔ23-27)R/I5 was used at various concentrations as competitors to displace GPCR135 binding of ^125I-R3/I5.

displacement of 125I-R3/I5 binding sites in rat brain sections [1]	Substance	total food intake over 4 hours (satiated Wistar rats; 4 hours)	food intake, first hour (satiated Wistar rats; first hour)
–	R3/I5: Chimeric peptide of relaxin-3 B-chain (SEQ ID NO:12) and INSL5 A-chain (SEQ ID NO:19); selective GPCR135 agonist (beta RAAPYGVRLCGREFIRAVIFTCGGSRW; alpha EDLQTLCCTDGCSMTDLSALC; INSL5 A-chain; listed as Homo Sapiens)	food intake was stimulated	food intake was stimulated
Full displacement	Relaxin-3: Wild type human relaxin-3, B-chain SEQ ID NO:12, A-chain SEQ ID NO:13; positive control	–	–
